Tests used:
Caco-2 cells = assay: Trans-epithelial electrical resistance (TEER) across Caco-2 mono-layer; format: cell-based, human; conditions: four replicates
Description: Caco-2 cells (a cell-line derived from human colon adenocarcinoma) were grown as a confluent mono-layer on the surface of a porous membrane (pore size 0.4 μm, surface area 0.33 cm^2) separating two aqueous compartments, the upper compartment filled with 200 μl of culture medium, and the lower compartment containing 600 μl. Electrical resistance across the mono-layer was measured using an epithelial voltohmeter connected to electrodes inserted into the medium on either side of the mono-layer in the upper and lower compartments. This trans-epithelial electrical resistance (TEER) was measured immediately before, and 15 minutes after the addition of aromatic alcohols to the upper compartment (see Table 6 below). Use of the compounds diluted two to four-fold below those concentrations shown eliminates the falls in electrical resistance observed. Fall in TEER is considered indicative of the appearance of aqueous channels between cells, and is evidence that the mechanism of action of the aromatic alcohols tested, in exerting their absorption enhancing activity, is via opening or loosening of tight junctions between intestinal cells.

[1] = Plasma glucose after intra-jejunal administration of insulin capsules to conscious pigs; format: in vivo; conditions: one capsule
Description: Formulations prepared as described in examples 1 and 2 were administered (one capsule per animal) directly to the intestine of conscious pigs (40 to 60 kg) via an in-dwelling stoma implanted surgically in the jejunum. Before and after administration, at the intervals shown, blood samples were taken for analysis of blood glucose levels. As a control, capsules containing 200 iu of unformulated insulin were also administered intra-jejunally.

Compound | TEER 15 minutes after (Caco-2 cells; 15 minutes after addition to upper compartment, concentration 40 μl/ml) | TEER Before addition (Caco-2 cells; immediately before addition of agent) | Changes in plasma glucose ([1]; 15 minutes, + s.d.) | Changes in plasma glucose ([1]; 30 minutes, + s.d.) | Changes in plasma glucose ([1]; 45 minutes, + s.d.) | Changes in plasma glucose ([1]; 60 minutes, + s.d.) | Changes in plasma glucose ([1]; 90 minutes, + s.d.) | Changes in plasma glucose ([1]; 120 minutes, + s.d.) | Changes in plasma glucose ([1]; 180 minutes, + s.d.) | Changes in plasma glucose ([1]; 240 minutes, + s.d.) | Changes in plasma glucose ([1]; time −10 minutes)
OCc1ccccc1 [Benzyl alcohol] | −1.6 ± 3.2 ohm · cm^2 | 447.2 ± 76.9 ohm · cm^2 | – | – | – | – | – | – | – | – | –
Control (unformulated insulin): capsules containing 200 iu of unformulated insulin administered intra-jejunally | – | – | 0.01 + 0.24 mmol/l | −0.05 + 0.21 mmol/l | −0.06 + 0.17 mmol/l | −0.32 + 0.23 mmol/l | −0.17 + 0.21 mmol/l | −0.22 + 0.32 mmol/l | −0.13 + 0.21 mmol/l | −0.34 + 0.32 mmol/l | 0.00 mmol/L

Reference: patent US7303762B2, “Absorption enhancers” (Axcess Limited, priority 2000, dated 2007)
